Results: PMC9412022, “Integrate thermostabilized fusion protein apocytochrome b 562 RIL and N-glycosylation mutations: A novel approach to heterologous expression of human UDP-glucuronosyltransferase (UGT) 2B7” (Frontiers in Pharmacology, 2022)
Numbering of substitutions follows the chain as printed.

Key:
UGT2B7 (N315A)-BRIL = target: T1, UGT2B7 (N315A)-BRIL (Homo sapiens, UniProt P16662, N315A); assay: Surface plasmon resonance binding to purified UGT2B7 (N315A)-BRIL; details: SPR, 25°C, Biacore T200, CM7 chip, steady-state affinity model
T1 construct: we selected the full-length UGT2B7 (N315A)-BRIL construct with BRIL covalently attached to the C-terminus of UGT2B7; made in house; host or cells: Spodoptera frugiperda Sf9 insect cells (Bac-to-Bac baculovirus)
T1 sequence (P16662 24-529 N315A): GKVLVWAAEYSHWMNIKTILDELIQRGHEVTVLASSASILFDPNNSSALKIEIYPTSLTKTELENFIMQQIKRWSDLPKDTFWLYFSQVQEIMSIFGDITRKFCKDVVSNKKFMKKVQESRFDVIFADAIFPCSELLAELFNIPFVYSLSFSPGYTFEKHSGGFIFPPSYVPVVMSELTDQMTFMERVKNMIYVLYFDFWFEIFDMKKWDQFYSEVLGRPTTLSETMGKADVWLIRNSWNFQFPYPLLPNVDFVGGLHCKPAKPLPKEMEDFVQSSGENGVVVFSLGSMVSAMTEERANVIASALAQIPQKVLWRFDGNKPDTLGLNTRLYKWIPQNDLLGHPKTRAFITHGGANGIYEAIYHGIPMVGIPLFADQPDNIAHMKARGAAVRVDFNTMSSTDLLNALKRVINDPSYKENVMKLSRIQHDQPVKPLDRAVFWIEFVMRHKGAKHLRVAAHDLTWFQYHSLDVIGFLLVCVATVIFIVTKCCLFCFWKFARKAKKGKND
Procedure: All experiments were performed with a running buffer containing phosphate buffer (pH 7.4), 0.002% LMNG, and 0.0002% CHS to maintain the concentration of detergent above the critical micelle concentration, which is necessary for the formation of micelles and the correct folding of the purified UGT2B7 proteins. About 8,500 response units of 6 × His-tag monoclonal antibody (Proteintech) were directly immobilized on the chip, which were desalted in 10 mM sodium acetate (pH 4.5). Then the purified UGT2B7 proteins flowed over the chip and coupled with the His-tag antibody at about 18,000 RU. And the blank channel was used as the negative control. Substrates or inhibitors solutions flowed over the chip at a flow rate of 30 μl/min and were contacted 120 s. Then, flowed running buffer at the same rate to dissociation 120 s. The obtained affinities data were analyzed with the BIA evaluation software using the steady-state affinity model.

UGT2B7-BRIL = target: T2, UGT2B7-BRIL (Homo sapiens, UniProt P16662); assay: CPM thermostability assay (melting temperature) of UGT2B7-BRIL in the presence of compounds; assay type: binding; details: apo protein Tm […]; for melting temperature (Tm) of UGT2B7-BRIL in the presence of the compound alone: CPM fluorescence, 20-95°C ramp
T2 construct: 10xHis (C); made in house; host or cells: Spodoptera frugiperda Sf9 insect cells (Bac-to-Bac baculovirus)
T2 sequence (P16662 24-529): T1 sequence (P16662 24-529 N315A) with A292N
Procedure: The gain setting was determined at the beginning of the run and the melting temperature (Tm) was calculated from the point of inflection.

purified UGT2B7 proteins = assay: Glucuronidation of zidovudine by purified UGT2B7 proteins in detergent LMNG/CHS; assay type: in vitro ADME, human; details: purified protein in detergent LMNG/CHS, no phospholipid bilayer

| Kd (UGT2B7 (N315A)-BRIL) [µM] | melting temperature (Tm) of UGT2B7-BRIL in the presence of the compound alone (UGT2B7-BRIL) [°C] | melting temperature (Tm) of UGT2B7-BRIL in the presence of both cofactor (UDP) and substrate (UGT2B7-BRIL; substrate + UDP) [°C] | glucuronidation by purified UGT2B7 proteins (purified UGT2B7 proteins) | SMILES |
| --- | --- | --- | --- | --- |
| 49.8 | – | – | – | COc1ccc([C@@H]2CC(=O)c3c(O)cc(O)cc3O2)cc1O [Hesperetin] |
| 17.3 | – | – | – | COc1cc2c(c(O)c1OC)-c1c(cc(OC)c(OC)c1OC)C[C@@H](C)[C@@H](C)C2 [Schisanhenol] |
| 589 | 50.9 | – | – | O=c1ccn([C@@H]2O[C@H](COP(=O)([O-])OP(=O)([O-])O)[C@@H](O)[C@H]2O)c(=O)[nH]1.[Na+].[Na+] [UDP, uridine 5′-diphosphate disodium salt] |
| – | 53.2 | 61.0 | not observed | Cc1cn([C@H]2C[C@H](N=[N+]=[N-])[C@@H](CO)O2)c(=O)[nH]c1=O [Zidovudine] |
